According to patent publication US20260166039A1 (SCHRÖDINGER, INC., priority 2022, published 2026):
Read-outs that look alike come from different tables or passages of the source.

Columns and labels:
[1] = target: T1, Wee1 kinase domain (Homo sapiens, UniProt P30291); experiment: Wee1 Kinase Biochemical Assay (ADP-Glo); settings: 15 uM ATP
T1 construct: Wee1 kinase domain was purchased from Carna (catalog #05-177); purchased Carna 05-177
In short: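 ADP-Glo detection of ADP produced after 4 h at 25° C by 1 nM Wee1 kinase domain on 2 ng/mL poly(Lys,Tyr 4:1) with 15 uM ATP. Buffer: 40 mM Tris-HCl, 20 mM MgCl2, 0.1 mg/mL BSA, 2 mM DTT. Inhibition is relative to DMSO (high) and saturating Wee1 inhibitor (low) controls.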

[2] = tested on: phosphorylation of Cdc2 Y15 (Wee1 substrate) in A427 cells; experiment: Phosphorylated Cdc2 MSD Electrochemiluminescence Assay; assay type: cell-based; settings: Homo sapiens
In short: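 Read-out: percent residual phospho-Cdc2 Y15 relative to DMSO and positive-control Wee1 inhibitor, measured by MSD electrochemiluminescence capture/detection antibody assay in cell lysates. A427 cells received duplicate 3-fold compound dilution series 20 h post-seeding, with 6 h total incubation at 37 °C.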

[3] = class symbols, 1 nM Wee1 enzyme, 4 hours at 25° C.
[4] = A-427, class symbols, read-out: A427 pCDC2 MSD IC50

T1 sequence (P30291 299-569 limits assumed): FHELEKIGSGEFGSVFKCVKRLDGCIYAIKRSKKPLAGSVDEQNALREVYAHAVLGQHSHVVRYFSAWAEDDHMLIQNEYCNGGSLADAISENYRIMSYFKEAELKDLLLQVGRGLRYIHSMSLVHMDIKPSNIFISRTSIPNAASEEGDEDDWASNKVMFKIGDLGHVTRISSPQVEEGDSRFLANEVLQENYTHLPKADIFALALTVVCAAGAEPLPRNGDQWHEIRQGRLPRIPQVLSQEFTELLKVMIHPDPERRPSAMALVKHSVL

C[C@H]1COC(=O)N1c1cccc(N2c3nc(Nc4ccc(N5CCN(C)CC5=O)cc4)ncc3[C@@]3(C)COC(C)(C)C[C@@H]23)n1 (single isomer, unassigned) [Example 271]
IC50 ([1]; Wee1 kinase domain, ADP-Glo): < 10 nM | IC50 ([2]; A-427, pCDC2 MSD): 100 to 1000 nM

C[C@H]1COC(=O)N1c1cccc(N2c3nc(Nc4ccc(C(C)(C)C)nc4)ncc3[C@@]3(C)COC(C)(C)C[C@@H]23)n1 (single isomer, unassigned) [Example 301]
IC50 ([1]; Wee1 kinase domain, ADP-Glo): < 10 nM | IC50 ([2]; A-427, pCDC2 MSD): 1000 to 10000 nM

CNCc1cccc(N2c3nc(Nc4ccc([C@H]5CCC(=O)N5C)cc4)ncc3[C@@]3(C)COC(C)(C)C[C@@H]23)n1 (single isomer, unassigned) [Example 54]
IC50 ([1]; Wee1 kinase domain, ADP-Glo): < 10 nM | IC50 ([2]; A-427, pCDC2 MSD): < 100 nM

CNCc1cccc(N2c3nc(NC(=O)[C@@H]4C[C@H]4c4cnn(C)c4)ncc3[C@@]3(C)COC(C)(C)C[C@@H]23)n1 [Example 764, (1R,2R)-2-(1-methyl-1H-pyrazol-4-yl)-N-((4bR,8aR)-4b,7,7-trimethyl-9-(6-((methylamino)methyl)pyridin-2-yl)-4b,5,7,8,8a,9-hexahydropyrano[3′,4′:4,5]pyrrolo[2,3-d]pyrimidin-2-yl)cyclopropane-1-carboxamide]
IC50 [1, 3]: < 10 nM | IC50 [2, 4]: 100 to 1000 nM

CNCc1cccc(N2c3nc(Nc4ccc(C5(C)COC5)cc4)ncc3[C@@]3(C)COC(C)(C)C[C@@H]23)n1 (single isomer, unassigned) [Example 84]
IC50 ([1]; Wee1 kinase domain, ADP-Glo): < 10 nM | IC50 ([2]; A-427, pCDC2 MSD): 100 to 1000 nM

Cc1cc(Nc2ncc3c(n2)N(c2cccc(N4CCOC4=O)n2)[C@@H]2CC(C)(C)OC[C@]32C)ccc1N1C[C@H]2C[C@@H]1CN2C [Example 660, 3-(6-((4bR,8aR)-4b,7,7-trimethyl-2-((3-methyl-4-((1R,4R)-5-methyl-2,5-diazabicyclo[2.2.1]heptan-2-yl)phenyl)amino)-4b,7,8,8a-tetrahydropyrano[3′,4′:4,5]pyrrolo[2,3-d]pyrimidin-9(5H)-yl)pyridin-2-yl)oxazolidin-2-one]
IC50 [1, 3]: < 10 nM | IC50 [2, 4]: 100 to 1000 nM

CNCc1ccc(Nc2ncc3c(n2)N(c2cccc(N4C(=O)CC[C@@H]4C)n2)[C@@H]2CC(C)(C)OC[C@]32C)cc1 (single isomer, unassigned) [Example 730]
IC50 [1, 3]: < 10 nM | IC50 [2, 4]: 100 to 1000 nM

CC1(C)C[C@H]2N(c3cccc(N=S(C)(C)=O)n3)c3nc(Nc4ccc(O[C@@H]5CCNC5)cc4)ncc3[C@@]2(C)CO1 (single isomer, unassigned) [Example 155]
IC50 ([1]; Wee1 kinase domain, ADP-Glo): < 10 nM | IC50 ([2]; A-427, pCDC2 MSD): 100 to 1000 nM

CNCc1cccc(N2c3nc(Nc4ccc(N5C[C@H]6C[C@@H]5CO6)cc4)ncc3[C@@]3(C)COC(C)(C)C[C@@H]23)n1 (single isomer, unassigned) [Example 44]
IC50 ([1]; Wee1 kinase domain, ADP-Glo): < 10 nM | IC50 ([2]; A-427, pCDC2 MSD): < 100 nM

Cc1cc(Nc2ncc3c(n2)N(c2cccc(N4CCOC4=O)n2)[C@@H]2CC(C)(C)OC[C@]32C)ccc1C1CCN(C)CC1 (single isomer, unassigned) [Example 597]
IC50 [1, 3]: < 10 nM | IC50 [2, 4]: 100 to 1000 nM

CNCc1cccc(N2c3nc(Nc4ccc(C5CCN(C)CC5)c(C)c4)ncc3[C@@]3(C)COC(C)(C)C[C@@H]23)n1 (single isomer, unassigned) [Example 72]
IC50 ([1]; Wee1 kinase domain, ADP-Glo): < 10 nM | IC50 ([2]; A-427, pCDC2 MSD): 100 to 1000 nM

C[C@H]1COC(=O)N1c1cccc(N2c3nc(Nc4ccc([C@H]5CCN(C)C5)nc4)ncc3[C@]3(C)COC(C)(C)C[C@H]23)n1 (single isomer, unassigned) [Example 262]
IC50 ([1]; Wee1 kinase domain, ADP-Glo): 100 to 1000 nM | IC50 ([2]; A-427, pCDC2 MSD): 100 to 1000 nM

CN[C@@H](C)c1cccc(N2c3nc(Nc4ccn(C5CCOCC5)c(=O)c4)ncc3[C@@]3(C)COC(C)(C)C[C@@H]23)n1 (single isomer, unassigned) [Example 390]
IC50 ([1]; Wee1 kinase domain, ADP-Glo): < 10 nM | IC50 ([2]; A-427, pCDC2 MSD): 100 to 1000 nM

CC1(C)C[C@H]2N(c3cccc(N4CCCC4=O)n3)c3nc(Nc4ccc(O[C@H]5CCNC5)cc4)ncc3[C@@]2(C)CO1 [Example 620, 1-(6-((4bR,8aR)-4b,7,7-trimethyl-2-((4-(((S)-pyrrolidin-3-yl)oxy)phenyl)amino)-4b,7,8,8a-tetrahydropyrano[3′,4′:4,5]pyrrolo[2,3-d]pyrimidin-9(5H)-yl)pyridin-2-yl)pyrrolidin-2-one]
IC50 [1, 3]: < 10 nM | IC50 [2, 4]: < 100 nM
